Test results published in patent US6670363B1, “Azole compounds as therapeutic agents for fungal infections” (Ranbaxy Laboratories Limited, priority 2000, dated 2003).
≈ marks a conversion by molar mass, not a printed value.

Experiments:
Assay type in all cases: cell-based
Cryptococcus neoformans = assay: In vitro MIC, NCCLS M27A, Cryptococcus neoformans; design: MIC, C. neoformans I: unit not given beside the values; MIC, C. neoformans M 106: unit not given here; conditions: for MIC, C. neoformans I: C. neoformans strain I; for MIC, C. neoformans M 106: C. neoformans strain M 106
Candida = assay: In vitro MIC, NCCLS M27A, Candida species; design: MIC, Candida albicans 1.549 / MIC, Candida albicans Y-01-19 / MIC, C. krusei 766-1 / MIC, C. krusei Q. C / MIC, Candida tropicalis ATCC / MIC, C. glabrata 90030: unit not given beside the values; MIC, Candida albicans A 26 / MIC, C. parapsilosis Q. C.: unit not given here; conditions: for MIC, C. glabrata 90030: C. glabrata strain 90030; for MIC, C. krusei 766-1: C. krusei strain 766-1; for MIC, C. krusei Q. C: C. krusei strain Q. C; for MIC, C. parapsilosis Q. C.: C. parapsilosis strain Q. C.; for MIC, Candida albicans 1.549: Candida albicans strain 1.549; for MIC, Candida albicans A 26: Candida albicans strain A 26; for MIC, Candida albicans Y-01-19: Candida albicans strain Y-01-19
Histoplasma capsulatum = tested on: Histoplasma capsulatum
A. fumigatus s 1008 = assay: In vitro MIC, NCCLS M38P broth method (RPMI 1640/MOPS pH7), Aspergillus fumigatus; conditions: A. fumigatus strain 1008

SMILES | MIC, C. neoformans I (Cryptococcus neoformans) | MIC, C. neoformans M 106 (Cryptococcus neoformans) | MIC, C. glabrata 90030 (Candida) | MIC, C. krusei 766-1 (Candida) | MIC, C. krusei Q. C (Candida) | MIC, C. parapsilosis Q. C. (Candida) | MIC, Candida albicans 1.549 (Candida) | MIC, Candida albicans A 26 (Candida) | MIC, Candida albicans Y-01-19 (Candida) | MIC, Candida tropicalis ATCC (Candida) | MIC, H. capsulatum (Histoplasma capsulatum) | MIC, A. fumigatus 1008 (A. fumigatus s 1008)
Cc1ccc(N2CCN(c3ccc(-n4cnn([C@H](C)[C@@](O)(Cn5cncn5)c5ccc(F)cc5F)c4=O)cc3)CC2)cc1C [Compound 24, 2-{[1R2S/1S2R]-2-(2,4-Difluorophenyl)-2-hydroxy-1-methyl-3-(1H-1,2,4-triazol-1-yl)propyl}-4-{4-[4-(3,4-dimethylphenyl)-1-piperazinyl]phenyl}-3-(2H,4H)-1,2,4-triazolone] | 0.50 | 1.00 | 2.00 | >16 | 16.0 | 0.25 | 2.00 | <0.03 | 16.00 | <0.03 | 0.25 µg/mL (≈ 0.416 µM) | >16
Cc1ccc(Cl)cc1N1CCN(c2ccc(-n3cnn([C@H](C)[C@](O)(Cn4cncn4)c4ccc(F)cc4F)c3=O)cc2)CC1 [Compound 21, 2-{[1R2R/1S2S]-2-(2,4-Difluorophenyl)-2-hydroxy-1-methyl-3-(1H-1,2,4-triazol-1-yl)propyl}-4-{4-[4-(5-chloro-2-methylphenyl)-1-piperazinyl]phenyl}-3-(2H,4H)-1,2,4-triazolone] | <0.03 | <0.03 | 0.50 | 0.50 | 0.25 | 0.06 | 0.25 | <0.03 | 0.25 | <0.03 | 0.12 µg/mL (≈ 0.193 µM) | 1.00
C[C@@H](n1ncn(-c2ccc(N3CCN(c4ccc(F)c(Cl)c4)CC3)cc2)c1=O)[C@@](O)(Cn1cncn1)c1ccc(F)cc1F [Compound 16, 2-{[1R2S/1S2R]-2-(2,4-Difluorophenyl)-2-hydroxy-1-methyl-3-(1H-1,2,4-triazol-1-yl)propyl}-4-{4-[4-(3-chloro-4-fluorophenyl)-1-piperazinyl]phenyl}-3-(2H,4H)-1,2,4-triazolone] | 0.12 | 0.12 | 0.50 | >16 | 1.00 | 0.06 | 4.00 | <0.03 | 1.00 | <0.03 | 0.5 µg/mL (≈ 0.8 µM) | >16
C[C@@H](n1ncn(-c2ccc(N3CCN(c4ccc(F)cc4)CC3)cc2)c1=O)[C@](O)(Cn1cncn1)c1ccc(F)cc1F [Compound 11, 2-{[1R2R/1S2S]-2-(2,4-Difluorophenyl)-2-hydroxy-1-methyl-3-(1H-1,2,4-triazol-1-yl)propyl}-4-{4-[4-(4-fluorophenyl)-1-piperazinyl]phenyl}-3-(2H,4H)-1,2,4-triazolone] | <0.03 | <0.03 | 0.25 | 0.25 | 0.12 | <0.03 | 0.06 | <0.03 | 0.12 | <0.03 | < 0.03 µg/mL | 0.25
C[C@@H](n1ncn(-c2ccc(N3CCN(c4ccccc4F)CC3)cc2)c1=O)[C@](O)(Cn1cncn1)c1ccc(F)cc1F [Compound 25, 2-{[1R2R/1S2S]-2-(2,4-Difluorophenyl)-2-hydroxy-1-methyl-3-(1H-1,2,4-triazol-1-yl)propyl}-4-{4-[4-(2-fluorophenyl)-1-piperazinyl]phenyl}-3-(2H,4H)-1,2,4-triazolone] | <0.03 | <0.03 | 0.12 | 0.12 | 0.06 | <0.03 | 0.06 | <0.03 | 0.12 | <0.03 | 0.06 µg/mL (≈ 0.102 µM) | 0.50
Cc1nn([C@H](C)[C@](O)(Cn2cncn2)c2ccc(F)cc2F)c(=O)n1-c1ccc(N2CCN(c3cc(Cl)cc(Cl)c3)CC2)cc1 [Compound 29, 2-{[1R2R/1S2S]-2-(2,4-Difluorophenyl)-2-hydroxy-1-methyl-3-(1H-1,2,4-triazol-1-yl)propyl}-4-{4-[4-(3,5-dichlorophenyl)-1-piperazinyl]phenyl}-3-(2H,4H)-5-methyl-1,2,4-triazolone] | <0.03 | <0.03 | 0.50 | 0.50 | 0.25 | <0.03 | 0.25 | <0.03 | 0.25 | <0.03 | 0.25 µg/mL (≈ 0.381 µM) | 0.50
Cc1ccc(N2CCN(c3ccc(-n4cnn([C@H](C)[C@@](O)(Cn5cncn5)c5ccc(F)cc5F)c4=O)cc3)CC2)cc1Cl [Compound 18, 2-{[1R2S/1S2R]-2-(2,4-Difluorophenyl)-2-hydroxy-1-methyl-3-(1H-1,2,4-triazol-1-yl)propyl}-4-{4-[4-(3-chloro-4-methylphenyl)-1-piperazinyl]phenyl}-3-(2H,4H)-1,2,4-triazolone] | 0.12 | 0.25 | 1.00 | >16 | 2.00 | 0.25 | 2.00 | <0.03 | 1.00 | <0.03 | 0.25 µg/mL (≈ 0.403 µM) | >16
Cc1ccc(Cl)cc1N1CCN(c2ccc(-n3cnn([C@H](C)[C@@](O)(Cn4cncn4)c4ccc(F)cc4F)c3=O)cc2)CC1 [Compound 22, 2-{[1R2S/1S2R]-2-(2,4-Difluorophenyl)-2-hydroxy-1-methyl-3-(1H-1,2,4-triazol-1-yl)propyl}-4-{4-[4-(5-chloro-2-methylphenyl)-1-piperazinyl]phenyl}-3-(2H,4H)-1,2,4-triazolone] | 0.12 | 0.06 | 1.00 | 8.00 | 1.00 | 0.25 | 2.00 | <0.03 | 1.00 | <0.03 | > 16 µg/mL | >16
C[C@@H](n1ncn(-c2ccc(N3CCN(c4ccc(Cl)cc4)CC3)cc2)c1=O)[C@@](O)(Cn1cncn1)c1ccc(F)cc1F [Compound 2, 2-{[1R2S/1S2R]-2-(2,4-Difluorophenyl)-2-hydroxy-1-methyl-3-(1H-1,2,4-triazol-1-yl)propyl}-4-{4-[4-(4-chlorophenyl)-1-piperazinyl]phenyl}-3-(2H,4H)-1,2,4-triazolone] | <0.03 | <0.03 | 0.50 | 2.00 | 1.00 | <0.03 | 1.00 | <0.03 | 0.25 | <0.03 | < 0.03 µg/mL | >16
Cc1ccc(N2CCN(c3ccc(-n4cnn([C@H](C)[C@](O)(Cn5cncn5)c5ccc(F)cc5F)c4=O)cc3)CC2)cc1Cl [Compound 17, 2-{[1R2R/1S2S]-2-(2,4-Difluorophenyl)-2-hydroxy-1-methyl-3-(1H-1,2,4-triazol-1-yl)propyl}-4-{4-[4-(3-chloro-4-methylphenyl)-1-piperazinyl]phenyl}-3-(2H,4H)-1,2,4-triazolone] | <0.03 | <0.03 | 0.50 | 0.50 | 0.50 | <0.03 | 0.25 | <0.03 | 0.25 | <0.03 | 0.25 µg/mL (≈ 0.403 µM) | 0.25
Cc1nn([C@H](C)[C@@](O)(Cn2cncn2)c2ccc(F)cc2F)c(=O)n1-c1ccc(N2CCN(c3ccc(Cl)cc3Cl)CC2)cc1 [Compound 34, 2-{[1R2S/1S2R]-2-(2,4-Difluorophenyl)-2-hydroxy-1-methyl-3-(1H-1,2,4-triazol-1-yl)propyl}-4-{4-[4-(2,4-dichlorophenyl)-1-piperazinyl]phenyl}-3-(2H,4H)-5-methyl-1,2,4-triazolone] | 0.25 | <0.03 | 0.50 | 2.00 | 1.00 | 0.25 | 1.00 | <0.03 | 1.00 | <0.03 | 0.12 µg/mL (≈ 0.183 µM) | 
